Assay results as given in patent US20110112133A1, “DIHYDRO PYRROLOQUINOLINE DERIVATIVES” (Takeda Pharmaceutical Company Limited, priority 2009, published 2011).

Target: T1, hNK2 receptor (Homo sapiens, UniProt P21452)
T1 construct: host or cells: CHO cells
T1 sequence (P21452 1-398): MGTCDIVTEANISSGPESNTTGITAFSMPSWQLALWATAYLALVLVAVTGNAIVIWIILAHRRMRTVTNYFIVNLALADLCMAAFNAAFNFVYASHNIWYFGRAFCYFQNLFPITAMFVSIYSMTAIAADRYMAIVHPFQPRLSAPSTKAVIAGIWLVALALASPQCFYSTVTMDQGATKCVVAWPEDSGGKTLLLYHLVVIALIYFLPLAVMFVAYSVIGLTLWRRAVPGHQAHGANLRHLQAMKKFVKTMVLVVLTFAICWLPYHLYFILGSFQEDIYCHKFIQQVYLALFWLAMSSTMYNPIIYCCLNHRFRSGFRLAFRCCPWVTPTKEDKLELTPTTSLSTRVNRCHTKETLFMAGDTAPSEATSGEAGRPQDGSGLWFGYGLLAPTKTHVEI
Experiment: Radioligand receptor binding inhibitory activity using membrane fraction of hNK2 receptor-expressing CHO cell ([125I]-NKA)
Settings: for inhibition at 1 µM / inhibition at 0.1 µM / inhibition at 0.01 µM / inhibition at 10 µM: read-out: hNK2 receptor binding inhibitory activity (inhibitory rate (%)); for inhibition at 10 µM: test compound 10^−5 M
Description: Radioligand Receptor Binding Inhibitory Activity Using Membrane Fraction of hNK2 Receptor-Expressing CHO Cell
hNK2 receptor-expressing CHO cells (produced by EUROSCREEN) were cultured in a flask placed HAM-F12 medium containing 400 μg/mL Geneticin, 100 U/mL penicillin, 100 μg/mL streptomycin and 10% inactivated serum. The medium was removed and adhered cells were washed with PBS, and PBS containing 5 mM EDTA was added to detach the cells from the flask. The cells were recovered by centrifugation, suspended in suspending buffer A (15 mM Tris-HCl (pH 7.5), 12.5 mM MgCl2, 0.3 mM EDTA, 1 mM EGTA (Ethylene Glycol Bis(beta-aminoethylether)-N,N,N,N-tetraacetic Acid)), disrupted by POLYTRON homogenizer (manufactured by KINEMATICA) and centrifuged at 850×g for 10 min at 4° C. The supernatant was recovered and ultracentrifuged at 142000×g for 60 min at 4° C. The precipitated fraction was suspended in suspending buffer B (7.5 mM Tris-HCl (pH 7.5), 12.5 mM MgCl2, 0.3 mM EDTA, 1 mM EGTA, 250 mM sucrose), and cryopreserved (at −80° C.) as a membrane fraction preparation of hNK2 receptor-expressing CHO cell.
The radioligand receptor binding assay was performed in a 96 well microassay plate format with a final volume of 200 μL.
An assay buffer (50 μL, 50 mM Tris-HCl (pH 7.4), 0.02% bovine serum albumin, 2 μg/mL chymostatin, 40 μg/mL bacitracin, 40 μg/mL APMSF, 3 mM MnCl2) was added to a 96 well microassay plate. Thereto was added 50 μL of the above-mentioned cryopreserved membrane fraction preparation suspended in the assay buffer (20 μg/mL). An assay buffer (50 μL) containing 2% dimethyl sulfoxide was added to examine the total binding, 4 μM unlabeled NKA (produced by Peptide Institute, Inc.) solution (50 μL) diluted with an assay buffer containing 2% dimethyl sulfoxide was added to examine non-specific binding, and a test compound diluted with an assay buffer (50 μL, containing 2% dimethyl sulfoxide) was added. Furthermore, […] [^125I]-NKA (produced by NEN) solution (50 μL) was added to each well.
After reaction at room temperature for 30 min, using a cell harvester (manufactured by PerkinElmer), the reaction was stopped by rapid filtration on a unifilter plate (GF/C) (manufactured by PerkinElmer), which had been immersed in 0.3% aqueous polyethyleneimine solution for one day, and the cells were washed 10 times with 50 mM Tris-HCl (pH 7.4) buffer (250 μL) containing 0.02% bovine serum albumin. The GF/C filter plate was dried and 20 μL of MicroScinti-0 (manufactured by PerkinElmer) was added to each well and the radioactivity was measured by TopCount (manufactured by PerkinElmer).
Specific binding is shown by the value obtained by subtracting non-specific binding from the total binding. The binding inhibitory activity of the test compound is shown by the ratio of the value obtained by subtracting the measured value associated with the addition of the test compound from the total binding, to the value of the specific binding.

Row | Structure (SMILES) | hNK2 receptor binding inhibitory activity (inhibitory rate (%)) (test compound 10^−6 M) | hNK2 receptor binding inhibitory activity (inhibitory rate (%)) (test compound 10^−7 M) | hNK2 receptor binding inhibitory activity (inhibitory rate (%)) (test compound 10^−8 M) | hNK2 receptor binding inhibitory activity (inhibitory rate (%)) (test compound 10^−6 M, hydrochloride) | hNK2 receptor binding inhibitory activity (inhibitory rate (%)) (test compound 10^−8 M, hydrochloride) | inhibition at 1 µM (test compound 10^−6 M) | inhibition at 0.1 µM (test compound 10^−7 M) | inhibition at 0.01 µM (test compound 10^−8 M) | inhibition at 10 µM
1 | Cc1ccn(-c2ccc(C(=O)N[C@@H]3CCC(F)(F)C[C@@H]3C(=O)N3CCc4c(-c5ncc[nH]5)nc5ccccc5c43)cc2)n1 [Example 1, N-[(1R,2S)-4,4-difluoro-2-{[4-(1H-imidazol-2-yl)-2,3-dihydro-1H-pyrrolo[3,2-c]quinolin-1-yl]carbonyl}cyclohexyl]-4-(3-methyl-1H-pyrazol-1-yl)benzamide] | 101.1% | 100.5% | 99.7% | – | – | – | – | – | –
2 | Br.Cc1ccn(-c2ccc(C(=O)N[C@@H]3CCC(F)(F)C[C@@H]3C(=O)N3CCc4c(-c5ncc[nH]5)nc5ccccc5c43)cc2)n1 [Example 2, N-[(1R,2S)-4,4-difluoro-2-{[4-(1H-imidazol-2-yl)-2,3-dihydro-1H-pyrrolo[3,2-c]quinolin-1-yl]carbonyl}cyclohexyl]-4-(3-methyl-1H-pyrazol-1-yl)benzamide hydrobromide] | 100.7% | 99.7% | 99.6% | – | – | – | – | – | –
3 | Cc1ccn(-c2ccc(C(=O)N[C@@H]3CCC(F)(F)C[C@@H]3C(=O)N3CCc4c(-c5ncc[nH]5)nc5ccccc5c43)cc2)n1.Cl [Example 3, N-[(1R,2S)-4,4-difluoro-2-{(4-(1H-imidazol-2-yl)-2,3-dihydro-1H-pyrrolo[3,2-c]quinolin-1-yl]carbonyl}cyclohexyl]-4-(3-methyl-1H-pyrazol-1-yl)benzamide hydrochloride] | – | 101.4% | – | 101.7% | 100.3% | – | – | – | –
4 | Cc1ccn(-c2ccc(C(=O)N[C@@H]3CCC(F)(F)C[C@@H]3C(=O)N3CCc4c(-c5nccn5COC(=O)C(C)(C)C)nc5ccccc5c43)cc2)n1 [Example 4, [2-(1-{[(1S,2R)-5,5-difluoro-2-({[4-(3-methyl-1H-pyrazol-1-yl)phenyl]carbonyl}amino)cyclohexyl]carbonyl)-2,3-dihydro-1H-pyrrolo[3,2-c]quinolin-4-yl)-1H-imidazol-1-yl]methyl 2,2-dimethylpropanoate] | – | – | – | – | – | 80.1% | 31.6% | -7.5% | –
5 | Cc1ccn(-c2ccc(C(=O)N[C@@H]3CCC(F)(F)C[C@@H]3C(=O)N3CCc4c(-c5ncc[nH]5)nc5ccc(F)cc5c43)cc2)n1 [Example 5, N-[(1R,2S)-4,4-difluoro-2-{[8-fluoro-4-(1H-imidazol-2-yl)-2,3-dihydro-1H-pyrrolo[3,2-c]quinolin-1-yl]carbonyl}cyclohexyl]-4-(3-methyl-1H-pyrazol-1-yl)benzamide] | 100.8% | 99.8% | 96.6% | – | – | – | – | – | –
6 | Cc1ccn(-c2ccc(C(=O)N[C@@H]3CCC(F)(F)C[C@@H]3C(=O)N3CCc4c(-c5ccsc5)nc5ccccc5c43)cc2)n1 [Example 7, N-[(1R,2S)-4,4-difluoro-2-{(4-thiophen-3-yl-2,3-dihydro-1H-pyrrolo[3,2-c]quinolin-1-yl)carbonyl]cyclohexyl}-4-(3-methyl-1H-pyrazol-1-yl)benzamide] | – | – | – | – | – | 100% | 100% | 98.8% | 102%
7 | Cc1ccn(-c2ccc(C(=O)N[C@@H]3CCC(F)(F)C[C@@H]3C(=O)N3CCc4c(-c5ccccc5)nc5ccc(F)cc5c43)cc2)n1 [Example 9, N-{(1R,2S)-4,4-difluoro-2-[(8-fluoro-4-phenyl-2,3-dihydro-1H-pyrrolo[3,2-c]quinolin-1-yl)carbonyl]cyclohexyl}-4-(3-methyl-1H-pyrazol-1-yl)benzamide] | – | – | – | – | – | 101% | 99.9% | 93.8% | 99.1%
